“Also recorded” adds a separate entry of the source.
Experiments:
[1] = system: AKR/J mice exposed to cigarette smoke for 5 months; assay: Chronic 5 months cigarette smoke exposure model, LXR agonist in diet; format: in vivo, mouse; details: for cigarette smoke induced protein levels of TNFα in the BAL / level of ABCA1 in BAL and lung tissue / total inflammatory cell counts in BAL: diet 0.015% w/w (30 mg/kg)
Experimental: Mice were chronically exposed to smoke in a specially designed chamber (Teague Enterprise, CA). 8 weeks old mice were smoke-exposed for 5 hours a day, 5 days a week for 10 days and 5 months. The total particulate matter (TPM) within the smoking chamber was regulated so that the mice receive a TPM of 100 mg/m^3. TPM was determined by a gravimetric analysis of filter samples taken during the exposure period. Mice (C57BL/6, AKR/J strain) were smoke exposed for 10 days and 5 months and compared to room air exposed controls.
Eight week-old AKR/J mice were utilized in the study and exposed to three different conditions: room air (n=8), cigarette smoke (n=8), cigarette smoke with additional treatment with LXR agonist (n=8). The LXR agonist was delivered in the diet and the concentration calculated based on the average mouse weight (30 g) and food consumption (6 g/day). Experimental food was prepared with a 0.015% LXR agonist (T0901317-Cayman Chemicals) in food (w/w) concentration corresponding to 30 mg/kg body weight. Both the control group and the custom drug diet were prepared by Research diets, Inc., New Brunswick, N.J. (Control diet (C11000)—Purina Rodent Chow 5001, Custom Diet (C13861)—Purina Rodent Chow 5001 with 0.015% LXR agonist (T0901317-Cayman Chemicals).
To determine the pulmonary compliance of the lung, a closed chest model was utilized (Foronjy et al., 2005). Respiratory mechanics were measured using a flexiVent (SCIREQ) system (Foronjy et al., 2005). Pentobarbital was used for sedation and succinylcholine for paralysis. The mice then underwent neck dissection and tracheostomy followed by a full assessment of pulmonary mechanics in triplicate utilizing the flexiVent system (Foronjy et al., 2005). After the airway measurements were performed the animals were sacrificed by CO2 inhalation and further utilized for tissue, BAL and lung analysis.
The BAL fluid was collected by perfusing the lungs with 2 ml of phosphate buffered saline (PBS). The samples were then centrifuged to pellet down the cells and re-suspended in 300 μl of PBS. To obtain the total cell count, cells were counted using a hematocytometer for which, 10 μl of the sample was utilized. To obtain the differential cell count, the slides were prepared using a cytopsin. 150 μl of sample was taken to prepare slides. These slides were stained using Hematoxylin and Eosin (H&E) and a number of regular and foamy like macrophages and lymphocytes counted under the microscope. A foamy like phenotype (Hirama et al., 2007) was identified by examining the sequential increase in macrophage size. Lipid staining was not performed.
Histological evaluation of the inflammation was performed on the left lungs which were fixed using 10% formalin. Fixed tissue was stained with H&E and Trichrome and mean linear intercept (MLI) determined as described previously (Foronjy et al., 2008; Foronjy et al., 2005; Foronjy et al., 2001; Foronjy et al., 2010; Foronjy et al., 2008a; Foronjy et al., 2006; Foronjy et al., 2003; Geraghty et al., 2013).
Total RNA was extracted from specimens of lung tissue 0.3 cm^3 in size with the use of the RNeasy kit (Qiagen, Germantown, Md.) (Goldklang et al., 2012). The RNA was then further processed to obtain cDNA, which was used for Real Time (RT) PCR analysis. TaqMan gene expression assays (Applied Biosystems, Carlsbad, Calif.) were performed to assess gene-transcript levels with the use of an ABI Prism 7900HT Sequence Detection System (Applera, Foster City, Calif.) (Goldklang et al., 2012). The following primers were used to check the respective gene expression: ABCA1 (Hs01059118_m1), ABCG1 (Hs00245154_m1), MMP-9 (Mm00442991_m1), IL-1β (Mm00434227_g1), TNF-α (Mm00443260_g1) and GAPDH (4352932E) from TaqMan Gene Expression Assays, Applied Biosystems, CA. β-actin was used as a control since it is a housekeeping gene.

[2] = system: murine disease models of atherosclerosis; details: mouse, in vivo; cited from earlier work
[3] = 5 months smoke, mass spectrometry
[4] = 5 months smoke, listed as LXR agonist
[5] = diet 0.015% w/w, 5 months smoke

O=S(=O)(c1ccccc1)N(CC(F)(F)F)c1ccc(C(O)(C(F)(F)F)C(F)(F)F)cc1 [T0901317, N-(2,2,2-trifluoroethyl)-N-[4-[2,2,2-trifluoro-1-hydroxy-1-(trifluoromethyl)ethyl]phenyl]-benzenesulfonamide]
collagen airway and vessels deposition ([1]; 5 months smoke, Masson Trichrome staining): decrease
cigarette smoke induced increase in C14 and C16 ceramides in BAL [1, 3]: reduced
total level of ceramides in the BAL [1, 3]: reduced
smoke induced increase in IFNγ and MCP-1 in the lung ([1]; diet 0.015% w/w): inhibited
cigarette smoke induced protein levels of TNFα in the BAL ([1]; 5 months smoke): decreased
level of ABCA1 in BAL and lung tissue ([1]; 5 months smoke): induced
total inflammatory cell counts in BAL ([1]; 5 months smoke): decrease
cigarette smoke induced protein levels of TNFα in the BAL [1, 4]: abrogated
level of ABCA1 in BAL and lung tissue [1, 4]: successfully increased; also recorded: restored
total inflammatory cell counts in BAL [1, 4]: significantly decreased
lung structure / emphysema development by mean linear intercept [1, 5]: preserved the lung structure and blocked emphysema development
mRNA expression of MMP-9 and TNFα in the lungs [1, 5]: No significant changes
mRNA levels of MMP-9 in the BAL cells [1, 5]: not significantly altered
alveolar macrophage population exhibiting a foam cell-like phenotype ([1]; diet 0.015% w/w, 5 months smoke, differential BAL cell counts): significantly reduced
lung elastance ([1]; diet 0.015% w/w, 5 months smoke, flexiVent): increase
lung compliance ([1]; diet 0.015% w/w, 5 months smoke, flexiVent, vs untreated smoke exposed mice): decrease
smoke induced MMP-9 activity in the BAL ([1]; diet 0.015% w/w, gelatin zymography): attenuated
cholesterol level in serum and liver [2]: lowers
development of atherosclerosis [2]: inhibits
